Results published in patent US20130089512A1, “HETEROARYL IMIDAZOLONE DERIVATIVES AS JAK INHIBITORS” (priority 2010, published 2013).

How the values were obtained:
human JAK1 (aa 850-1154) = human JAK1 (aa 850-1154) (Homo sapiens, UniProt P23458); test: In vitro JAK kinase assay (TR-FRET), JAK1
Protocol: (§1) The enzymatic activity was assayed using as substrate a biotinylated peptide, poly (GT)-Biotin (CisBio). […] The degree of phosphorylation was detected by TR-FRET (time-resolved fluorescence energy transfer). […] The enzymatic reactions took place for 30 minutes at room temperature. […] Incubate for 3 h and read on Victor 2V spectrofluorometer (PerkinElmer) set to read fluorescence resonance energy transfer.

human JAK2 (aa 826-1132) = human JAK2 (aa 826-1132) (Homo sapiens, UniProt O60674); test: In vitro JAK kinase assay (TR-FRET), JAK2
Protocol: as §1

human JAK3 (aa 795-1124) = human JAK3 (aa 795-1124) (Homo sapiens, UniProt P52333); test: In vitro JAK kinase assay (TR-FRET), JAK3
human JAK3 (aa 795-1124), sequence (P52333 795-1124): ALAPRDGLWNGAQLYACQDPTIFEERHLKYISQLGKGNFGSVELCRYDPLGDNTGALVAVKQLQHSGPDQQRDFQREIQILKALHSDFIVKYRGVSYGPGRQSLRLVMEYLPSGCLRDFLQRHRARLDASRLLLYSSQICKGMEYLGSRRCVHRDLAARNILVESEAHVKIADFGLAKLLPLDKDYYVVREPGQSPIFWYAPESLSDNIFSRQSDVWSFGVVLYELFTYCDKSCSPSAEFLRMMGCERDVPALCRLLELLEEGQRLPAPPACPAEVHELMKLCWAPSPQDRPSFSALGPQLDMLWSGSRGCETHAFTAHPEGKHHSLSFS
Protocol: as §1

human JAK2 (aa 826-1132), sequence (O60674 826-1132): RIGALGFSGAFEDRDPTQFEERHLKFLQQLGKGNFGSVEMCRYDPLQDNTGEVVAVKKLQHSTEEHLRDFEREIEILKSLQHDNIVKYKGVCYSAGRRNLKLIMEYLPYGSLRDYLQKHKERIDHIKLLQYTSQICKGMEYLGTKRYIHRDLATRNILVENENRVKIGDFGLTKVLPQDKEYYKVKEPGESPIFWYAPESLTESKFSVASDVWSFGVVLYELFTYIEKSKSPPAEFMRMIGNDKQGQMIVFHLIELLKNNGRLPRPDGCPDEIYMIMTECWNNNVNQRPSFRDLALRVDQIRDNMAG
human JAK1 (aa 850-1154), sequence (P23458 850-1154): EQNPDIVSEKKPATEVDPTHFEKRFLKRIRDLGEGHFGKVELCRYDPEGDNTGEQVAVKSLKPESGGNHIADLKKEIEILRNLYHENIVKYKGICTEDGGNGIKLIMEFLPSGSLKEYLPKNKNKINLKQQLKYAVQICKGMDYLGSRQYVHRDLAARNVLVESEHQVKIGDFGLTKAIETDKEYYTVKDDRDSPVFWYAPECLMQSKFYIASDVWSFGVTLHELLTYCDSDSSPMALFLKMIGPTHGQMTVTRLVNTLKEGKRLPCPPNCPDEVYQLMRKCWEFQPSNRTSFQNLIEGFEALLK

C[C@@H]1CCCC[C@@H]1n1c(=O)[nH]c2cnc(-c3cnc4ccc(C#N)cn34)nc21 [Example 3, 3-(9-((1S,2R)-2-Methylcyclohexyl)-8-oxo-8,9-dihydro-7H-purin-2-yl)imidazo[1,2-a]pyridine-6-carbonitrile]
IC50 (human JAK1 (aa 850-1154)): 100 to 1000 nM

O=c1[nH]c2cnc(-c3cnc4ccc(F)cn34)nc2n1[C@H](CO)c1ccc(F)cn1 [Example 35, (S)-2-(6-Fluoroimidazo[1,2-a]pyridin-3-yl)-9-(1-(5-fluoropyridin-2-yl)-2-hydroxyethyl)-7H-purin-8(9H)-one]
IC50 (human JAK2 (aa 826-1132)): < 100 nM
IC50 (human JAK1 (aa 850-1154)): 100 to 1000 nM
IC50 (human JAK3 (aa 795-1124)): 100 to 1000 nM

N#CC1(n2c(=O)[nH]c3cnc(-c4cnc5ccc(F)cn45)nc32)CCCCC1 [Example 36, 1-(2-(6-Fluoroimidazo[1,2-a]pyridin-3-yl)-8-oxo-7H-purin-9(8H)-yl)cyclohexane carbonitrile]
IC50 (human JAK2 (aa 826-1132)): < 100 nM
IC50 (human JAK1 (aa 850-1154)): > 1000 nM
IC50 (human JAK3 (aa 795-1124)): 100 to 1000 nM

CC1(C)CC(n2c(=O)[nH]c3cnc(-c4cnc5ccc(F)cn45)nc32)c2cccnc2O1 (stereo not shown) [Example 42, 9-(2,2-Dimethyl-3,4-dihydro-2H-pyrano[2,3-b]pyridin-4-yl)-2-(6-fluoroimidazo[1,2-a]pyridin-3-yl)-7H-purin-8(9H)-one]
IC50 (human JAK2 (aa 826-1132)): 100 to 1000 nM
IC50 (human JAK1 (aa 850-1154)): > 1000 nM
IC50 (human JAK3 (aa 795-1124)): 100 to 1000 nM

C[C@H](CC(N)=O)n1c(=O)[nH]c2cnc(-c3cnc4ccc(F)cn34)nc21 [Example 58, (R)-3-(2-(6-Fluoroimidazo[1,2-a]pyridin-3-yl)-8-oxo-7H-purin-9(8H)-yl)butanamide]
IC50 (human JAK2 (aa 826-1132)): 100 to 1000 nM
IC50 (human JAK1 (aa 850-1154)): > 1000 nM
IC50 (human JAK3 (aa 795-1124)): 100 to 1000 nM

CS(=O)(=O)N1CCC[C@@H](n2c(=O)[nH]c3cnc(-c4cnc5ccc(F)cn45)nc32)C1 [Example 62, 2-(6-Fluoroimidazo[1,2-a]pyridin-3-yl)-9-[(3R)-1-(methylsulfonyl)piperidin-3-yl]-7,9-dihydro-8H-purin-8-one]
IC50 (human JAK2 (aa 826-1132)): < 100 nM
IC50 (human JAK1 (aa 850-1154)): > 1000 nM
IC50 (human JAK3 (aa 795-1124)): 100 to 1000 nM

CS(=O)(=O)N1CCC(n2c(=O)[nH]c3ccc(-c4cnc5ccc(F)cn45)nc32)CC1 [Example 71, 5-(6-Fluoroimidazo[1,2-a]pyridin-3-yl)-3-[1-(methylsulfonyl)piperidin-4-yl]-1,3-dihydro-2H-imidazo[4,5-b]pyridin-2-one]
IC50 (human JAK2 (aa 826-1132)): < 100 nM
IC50 (human JAK1 (aa 850-1154)): > 1000 nM
IC50 (human JAK3 (aa 795-1124)): < 100 nM

O=c1[nH]c2cc(F)c(-c3cnc4ccc(F)cn34)nc2n1C1CCOCC1 [Example 73, 6-Fluoro-5-(6-fluoroimidazo[1,2-a]pyridin-3-yl)-3-(tetrahydro-2H-pyran-4-yl)-1,3-dihydro-2H-imidazo[4,5-b]pyridin-2-one]
IC50 (human JAK2 (aa 826-1132)): < 100 nM
IC50 (human JAK1 (aa 850-1154)): 100 to 1000 nM
IC50 (human JAK3 (aa 795-1124)): < 100 nM

C[C@H](c1ccc(F)cn1)n1c(=O)[nH]c2cnc(-c3cnn4ccncc34)nc21 [Example 79, (R)-9-(1-(5-Fluoropyridin-2-yl)ethyl)-2-(pyrazolo[1,5-a]pyrazin-3-yl)-7H-purin-8(9H)-one]
IC50 (human JAK2 (aa 826-1132)): < 100 nM
IC50 (human JAK1 (aa 850-1154)): < 100 nM
IC50 (human JAK3 (aa 795-1124)): < 100 nM

O=c1[nH]c2cnc(-c3cnn4ccncc34)nc2n1CC1CCOCC1 [Example 80, 2-(Pyrazolo[1,5-a]pyrazin-3-yl)-9-((tetrahydro-2H-pyran-4-yl)methyl)-7H-purin-8(9H)-one]
IC50 (human JAK2 (aa 826-1132)): 100 to 1000 nM
IC50 (human JAK1 (aa 850-1154)): 100 to 1000 nM
IC50 (human JAK3 (aa 795-1124)): 100 to 1000 nM

O=c1[nH]c2cnc(-c3cnn4ccncc34)nc2n1C1CCC(F)(F)CC1 [Example 81, 9-(4,4-Difluorocyclohexyl)-2-(pyrazolo[1,5-a]pyrazin-3-yl)-7H-purin-8(9H)-one]
IC50 (human JAK2 (aa 826-1132)): < 100 nM
IC50 (human JAK1 (aa 850-1154)): < 100 nM
IC50 (human JAK3 (aa 795-1124)): < 100 nM

O=c1[nH]c2cnc(-c3cnn4cc(F)ccc34)nc2n1C1CCOCC1 [Example 89, 2-(6-Fluoropyrazolo[1,5-a]pyridin-3-yl)-9-(tetrahydro-2H-pyran-4-yl)-7H-purin-8(9H)-one]
IC50 (human JAK2 (aa 826-1132)): < 100 nM
IC50 (human JAK1 (aa 850-1154)): > 1000 nM
IC50 (human JAK3 (aa 795-1124)): < 100 nM

O=c1[nH]c2cnc(-c3cnn4cccnc34)cc2n1C1CCOCC1 [Example 92, 6-(Pyrazolo[1,5-a]pyrimidin-3-yl)-1-(tetrahydro-2H-pyran-4-yl)-1H-imidazo[4,5-c]pyridin-2(3H)-one]
IC50 (human JAK2 (aa 826-1132)): < 100 nM
IC50 (human JAK1 (aa 850-1154)): 100 to 1000 nM
IC50 (human JAK3 (aa 795-1124)): 100 to 1000 nM

O=c1[nH]c2c(N3CCNCC3)nc(-c3cnc4ccc(F)cn34)nc2n1C1CCOCC1 [Example 98, 2-(6-Fluoroimidazo[1,2-a]pyridin-3-yl)-6-(piperazin-1-yl)-9-(tetrahydro-2H-pyran-4-yl)-7H-purin-8(9H)-one]
IC50 (human JAK2 (aa 826-1132)): < 100 nM
IC50 (human JAK1 (aa 850-1154)): > 1000 nM
IC50 (human JAK3 (aa 795-1124)): < 100 nM
